# “And” between values parts separate entries of the source, which are not always exact repeats. Equal values may be shown once. “Also recorded” adds a separate entry of the source.
# System: renal fibrosis
# Assay: Unilateral Urethral Obstruction (UUO) renal fibrosis model in rats: body weight, clinical observations, histopathology scores, serum urea, hydroxyproline
# Type: in vivo, rat
# Parameters: Glomerulosclerosis score / Interstitial nephritis score / Collagen fiber deposition score / Nephropathy score / Total score: scale not given here
# Conditions: for Clinical Observation: — = no observation
# Source text: Unilateral Urethral Obstruction (UUO) is a complex model of renal fibrosis (RF) disease. RF is a common outcome in progressive chronic kidney diseases, characterized by excessive formation of internal scar tissue. Surgical obstruction of urine flow can be used to trigger this disease in rodents. The UUO model allows for evaluation of potential drugs as treatment for RF.
# Experimental groups for the study are outlined in Table 10. […] Briefly, animals were anesthetized using a Zoletil/Xylazine mixture (20:1, v:v) for a final dose of 25 mg/kg. The operation area was disinfected with 75% alcohol before shaving. Rats in UUO group were exposed left ureter through a small incision on the left side of the abdomen and ligated with 3-0 silk at two locations about 0.5 cm below the renal hilum. The ureters of sham rats in Group 1 were manipulated but not ligated.
# Starting on Day 0, animals in group 2 were administered daily doses of the vehicle for 14 days.
# Clinical signs for all animals were monitored and recorded daily. Blind clinical nephropathy scores were conducted for all animals in the study. Glomerulosclerosis, interstitial nephritis, collagen fiber deposition, nephropathy were each assessed for all experimental rats, and a total clinical score was determined for each rat. The scoring system represented the degree or percentage of lesions in the whole kidney. Clinical score assessments were performed on Day 14.
# Serum for blood biochemistry analysis was collected into centrifuge tubes without coagulant four hours after final dosing. Blood plasma samples from group 3 was collected into tubes with K2EDTA four hours after final dosing. At the conclusion of the study (end of the 14-day period), animals were euthanized. Kidney tissue was collected four hours after final dosing. Ligated side kidney was divided into three copies ⅓ fix into 10% formalin for H&E analysis, ⅓ into RNA for PCR analysis of tissue biomarkers Col1a1, TGF-b1, MCP-1, IL-1b, IL-6, IL-17, TNF-a, and Timp1, and ⅓ for hydroxyproline assay analyzed by ELISA. RNA was extracted from tissue using the RNeasy mini kit (Qiagen). RNA concentration was measured using a NanoDrop One Spectrophotometer (ThermoFisher) and converted to cDNA using a High-Capacity RNA-to-cDNA kit (Invitrogen). RT-PCR was performed to measure levels of mRNA of different targets using TaqMan® Gene Expression Master Mix and TaqMan® probe/primer sets on a QuantStudio 6, Real-Time PCR System (ThermoFisher). Fold change in target gene expression was determined using the ΔΔCt method.
# [1] = 30 mg/kg BID for 14 days (group 3)
# [2] = Example 101 30 mg/kg, individual animals, histopathology score
smiles,measurement,setting,value
"CNC(=O)c1[nH]c(C(=O)NC2CCC2)cc1O[C@@H](C)c1ccccc1 (stereo in doubt) [Example 101, N^5-cyclobutyl-N^2-methyl-3-(1-phenylethoxy)-1H-pyrrole-2,5-dicarboxamide]",overall effect in UUO / renal fibrosis,30 mg/kg,ameliorates clinical symptoms associated with UUO; also recorded: surprisingly effective against renal fibrosis and renal fibrosis-related conditions
same,animals that exhibited diarrhea in addition to soft stools,[1],One animal
same,animals that exhibited dirty anuses,[1],Three animals
same,body weight over the 14-day study,[1],"slight weight loss over the first seven days of the study, and then gained weight over the remaining seven days"
same,rats that exhibited soft stools during the study,[1],Four
same,level of collagen fiber deposition relative to UUO + vehicle,"30 mg/kg BID, Day 14",reduced
same,level of interstitial nephritis relative to UUO + vehicle,"30 mg/kg BID, Day 14",reduced
same,level of nephropathy relative to UUO + vehicle,"30 mg/kg BID, Day 14",reduced
same,pathology staining of kidney (FIG. 13B),"30 mg/kg BID, Day 14","mild interstitial nephritis with neutrophil and lymphocyte infiltration, degeneration and necrosis of renal tubular epithelial cells, and high tubular dilatation"
same,total clinical scores relative to UUO + vehicle,"30 mg/kg BID, Day 14",reduced
same,serum urea levels between the three experimental groups,"30 mg/kg BID, four hours after final dosing",No significant differences
same,hydroxyproline levels between the three experimental groups,"30 mg/kg BID, kidney tissue",No significant differences
same,Body weight,"30 mg/kg, Day 0, individual animals",324 g and 307 g and 295 g and 302 g and 285 g and 297 g and 294 g and 306 g
same,Body weight,"30 mg/kg, Day 1, individual animals",293 g and 284 g (2×) and 277 g (2×) and 279 g and 276 g and 302 g
same,Body weight,"30 mg/kg, Day 2, individual animals",299 g (2×) and 274 g (3×) and 275 g and 273 g and 303 g
same,Body weight,"30 mg/kg, Day 3, individual animals",306 g and 266 g and 267 g and 274 g (2×) and 278 g and 304 g and 305 g
same,Body weight,"30 mg/kg, Day 4, individual animals",315 g and 259 g and 262 g and 276 g and 283 g and 277 g and 309 g and 312 g
same,Body weight,"30 mg/kg, Day 5, individual animals",310 g and 263 g and 254 g and 282 g and 284 g and 279 g and 302 g and 315 g
same,Body weight,"30 mg/kg, Day 6, individual animals",323 g and 265 g and 258 g and 286 g and 285 g and 284 g and 304 g and 321 g
same,Body weight,"30 mg/kg, Day 7, individual animals",322 g and 270 g and 258 g and 297 g and 289 g and 287 g and 307 g and 324 g
same,Body weight,"30 mg/kg, Day 8, individual animals",322 g and 271 g and 260 g and 296 g
same,Body weight,"30 mg/kg, Day 9, individual animals",331 g and 276 g and 264 g and 303 g
same,Body weight,"30 mg/kg, Day 10, individual animals",330 g and 277 g and 261 g and 311 g
same,Body weight,"30 mg/kg, Day 11, individual animals",327 g and 275 g and 265 g and 297 g
same,Body weight,"30 mg/kg, Day 12, individual animals",318 g and 285 g and 260 g and 291 g
same,Body weight,"30 mg/kg, Day 13, individual animals",328 g and 283 g and 276 g and 304 g
same,Body weight,"30 mg/kg, Day 14, individual animals",334 g and 286 g and 271 g and 313 g
same,Body weight,"30 mg/kg, Day −1, individual animals",306 g and 287 g and 299 g and 295 g and 281 g and 285 g and 296 g and 301 g
same,Serum Urea Mean ± SD,"30 mg/kg, group mean",5.85 ± 0.69 mmol/L
same,Serum Urea,"30 mg/kg, individual animals",4.95 mmol/L and 6.04 mmol/L and 6.62 mmol/L and 5.01 mmol/L and 5.28 mmol/L and 6.26 mmol/L and 5.90 mmol/L and 6.70 mmol/L
same,Collagen fiber deposition score,[2],2 (2×) and 1 (6×)
same,Glomerulosclerosis score,[2],0
same,Interstitial nephritis score,[2],3 (5×) and 2 (3×)
same,Nephropathy score,[2],2 (2×) and 1 (6×)
same,Total score,"Example 101 30 mg/kg, individual animals, sum of histopathology scores",7 (2×) and 5 (3×) and 4 (3×)
same,"Body weight, Mean ± SD","group 3, Day 0, group mean",301 g
same,"Body weight, Mean ± SD","group 3, Day 1, group mean",284 g
same,"Body weight, Mean ± SD","group 3, Day 2, group mean",284 g
same,"Body weight, Mean ± SD","group 3, Day 3, group mean",284 g
same,Clinical Observation,"group 3, Day 3, individual animals",diarrhea
same,"Body weight, Mean ± SD","group 3, Day 4, group mean",287 g
same,"Body weight, Mean ± SD","group 3, Day 5, group mean",286 g
same,Clinical Observation,"group 3, Day 5, individual animals",Anal
same,"Body weight, Mean ± SD","group 3, Day 6, group mean",291 g
same,Clinical Observation,"group 3, Day 6, individual animals",Anal
same,"Body weight, Mean ± SD","group 3, Day 7, group mean",294 g
same,Clinical Observation,"group 3, Day 7, individual animals",Anal
same,"Body weight, Mean ± SD","group 3, Day 8, group mean",296 g
same,Clinical Observation,"group 3, Day 8, individual animals",soft
same,"Body weight, Mean ± SD","group 3, Day 9, group mean",300 g
same,Clinical Observation,"group 3, Day 9, individual animals",soft
same,"Body weight, Mean ± SD","group 3, Day 10, group mean",303 g
same,Clinical Observation,"group 3, Day 10, individual animals",soft
same,"Body weight, Mean ± SD","group 3, Day 11, group mean",306 g
same,"Body weight, Mean ± SD","group 3, Day 12, group mean",304 g
same,"Body weight, Mean ± SD","group 3, Day 13, group mean",312 g
same,Clinical Observation,"group 3, Day 13, individual animals",soft
same,"Body weight, Mean ± SD","group 3, Day 14, group mean",314 g
same,Clinical Observation,"group 3, Day 14, individual animals",Anal (2×) and soft
same,"Body weight, Mean ± SD","group 3, Day −1, group mean",294 g
same,"Final Hydroxyproline Con., Mean",group mean,0.65 μg/mg tissue
same,Final Hydroxyproline Con.,individual animals,0.72 μg/mg tissue (2×) and 0.69 μg/mg tissue and 0.64 μg/mg tissue and 0.60 μg/mg tissue and 0.66 μg/mg tissue and 0.58 μg/mg tissue and 0.55 μg/mg tissue
